Values quoted from earlier work as cited in patent US10980740B2, “Tranexamic acid spray for knee arthroplasty” (SHILPA MEDICARE LIMITED, priority 2017, dated 2021).
Read-outs that look alike come from different tables or passages of the source.

Columns and labels:
plasminogen = plasminogen (Homo sapiens, UniProt P00747)
[1] = tested on: Total knee arthroplasty patients
[2] = tested on: patients undergoing elective total knee arthroplasty

Chain of plasminogen (P00747 20-810 limits assumed, species assumed): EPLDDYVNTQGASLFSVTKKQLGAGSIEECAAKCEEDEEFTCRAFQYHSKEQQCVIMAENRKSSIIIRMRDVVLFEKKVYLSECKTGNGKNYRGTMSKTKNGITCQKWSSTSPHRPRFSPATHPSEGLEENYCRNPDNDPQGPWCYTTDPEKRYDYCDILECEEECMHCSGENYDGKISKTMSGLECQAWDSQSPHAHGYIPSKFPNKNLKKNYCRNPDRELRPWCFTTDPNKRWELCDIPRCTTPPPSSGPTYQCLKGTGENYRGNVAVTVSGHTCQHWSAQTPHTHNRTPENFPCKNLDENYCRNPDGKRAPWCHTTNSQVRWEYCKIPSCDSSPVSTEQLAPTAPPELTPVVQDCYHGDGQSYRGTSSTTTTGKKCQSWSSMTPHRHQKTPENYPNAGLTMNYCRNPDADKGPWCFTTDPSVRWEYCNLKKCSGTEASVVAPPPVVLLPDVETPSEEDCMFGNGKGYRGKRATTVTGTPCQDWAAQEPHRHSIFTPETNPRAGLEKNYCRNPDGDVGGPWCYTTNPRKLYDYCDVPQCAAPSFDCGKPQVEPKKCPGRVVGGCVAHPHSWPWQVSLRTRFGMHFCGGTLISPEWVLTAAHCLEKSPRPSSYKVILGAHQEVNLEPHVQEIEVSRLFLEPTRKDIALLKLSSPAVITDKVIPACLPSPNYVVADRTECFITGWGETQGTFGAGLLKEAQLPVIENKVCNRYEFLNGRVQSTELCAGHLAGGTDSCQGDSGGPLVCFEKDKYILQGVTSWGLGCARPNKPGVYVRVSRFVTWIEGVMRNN

- potency in vitro relative to aminocaproic acid (plasminogen): about 10 times
Compound: NC[C@H]1CC[C@H](C(=O)O)CC1 [Tranexamic acid]
- systemic side effects ([1]; topical tranexamic acid): reduces the systemic side effects
- reduction of peri- and post-operative blood loss, topical compared with intravenous ([1]; total knee arthroplasty, topical 2 gm in intra-articular drain, clamped one hour): equally efficacious
- reducing calculated blood loss and transfusion rates ([2]; intravenous): effective
- reducing calculated blood loss and transfusion rates ([2]; topical, 3 gm diluted in 45 mL normal saline, applied after cementation): effective
